# Where two headings read alike, the source gives them in different places.
# Key:
# [1] = biological target: c-Raf (Homo sapiens, UniProt P04049); assay: Luciferase-coupled chemiluminescence kinase assay (ATP consumption), c-Raf; type: biochemical
# Outline: (§1)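 Pre-incub. kinase […] + cpd, 30 min RT (20 mM Tris pH 7.5, 10 mM MgCl2, 0.03% TX-100, 1 mM DTT). Start w/ ATP, 3 h ambient. Luciferase-luciferin mix added and luminescence read. Total ATP use 25-60%. IC50 derived.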
# [2] = biological target: B-Raf (Homo sapiens, UniProt P15056); assay: Luciferase-coupled chemiluminescence kinase assay (ATP consumption), B-Raf; type: biochemical
# Sequence of B-Raf (P15056 whole entry): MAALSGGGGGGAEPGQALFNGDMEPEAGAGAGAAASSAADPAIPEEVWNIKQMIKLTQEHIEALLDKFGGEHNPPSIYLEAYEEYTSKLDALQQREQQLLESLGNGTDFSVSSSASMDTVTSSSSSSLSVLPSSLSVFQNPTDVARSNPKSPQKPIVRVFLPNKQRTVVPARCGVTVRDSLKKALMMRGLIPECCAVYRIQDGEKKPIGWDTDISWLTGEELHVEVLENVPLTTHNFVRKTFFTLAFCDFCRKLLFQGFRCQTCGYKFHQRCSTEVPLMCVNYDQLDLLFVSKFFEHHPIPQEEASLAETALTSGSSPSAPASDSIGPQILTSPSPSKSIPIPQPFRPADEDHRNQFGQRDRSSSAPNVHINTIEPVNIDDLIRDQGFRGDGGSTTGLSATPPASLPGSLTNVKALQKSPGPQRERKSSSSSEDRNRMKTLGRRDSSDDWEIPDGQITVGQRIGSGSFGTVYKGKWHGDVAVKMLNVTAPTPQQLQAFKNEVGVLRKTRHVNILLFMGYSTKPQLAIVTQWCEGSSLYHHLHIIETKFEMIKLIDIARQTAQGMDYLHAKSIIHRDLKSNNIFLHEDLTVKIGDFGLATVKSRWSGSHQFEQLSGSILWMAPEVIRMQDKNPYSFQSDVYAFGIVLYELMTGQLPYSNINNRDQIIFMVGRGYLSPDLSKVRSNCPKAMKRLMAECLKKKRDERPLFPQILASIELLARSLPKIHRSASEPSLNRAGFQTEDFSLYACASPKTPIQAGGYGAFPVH
# Outline: as §1
# [3] = read-out: cRaf-1 (inhibition indicated as IC50)
# [4] = read-out: bRaf (inhibition indicated as IC50)
# Sequence of c-Raf (P04049 whole entry): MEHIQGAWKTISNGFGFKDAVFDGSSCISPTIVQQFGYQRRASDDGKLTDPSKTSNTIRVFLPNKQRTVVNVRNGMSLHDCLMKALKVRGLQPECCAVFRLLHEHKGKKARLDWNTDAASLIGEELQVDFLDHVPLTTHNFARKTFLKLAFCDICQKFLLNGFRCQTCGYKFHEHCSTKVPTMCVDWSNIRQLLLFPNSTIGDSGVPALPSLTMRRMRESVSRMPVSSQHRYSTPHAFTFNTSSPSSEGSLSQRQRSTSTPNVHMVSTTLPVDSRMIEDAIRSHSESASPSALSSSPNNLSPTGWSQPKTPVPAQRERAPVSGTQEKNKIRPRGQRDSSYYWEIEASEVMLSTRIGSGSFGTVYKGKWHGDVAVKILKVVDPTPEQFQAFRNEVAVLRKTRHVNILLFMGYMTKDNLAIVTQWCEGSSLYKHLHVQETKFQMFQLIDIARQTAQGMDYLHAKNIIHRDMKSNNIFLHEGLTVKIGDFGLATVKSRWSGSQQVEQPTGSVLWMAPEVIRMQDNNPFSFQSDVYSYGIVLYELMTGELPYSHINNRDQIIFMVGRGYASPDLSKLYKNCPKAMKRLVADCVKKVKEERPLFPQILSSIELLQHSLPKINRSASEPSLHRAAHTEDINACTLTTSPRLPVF
SMILES,"IC50 [1, 3] [nM]","IC50 [2, 4] [nM]",IC50 ([1]; read-out: cRaf-1 IC50) [nM],IC50 ([2]; read-out: bRaf IC50) [nM]
"O=C(Nc1nc2ccc(C3(O)c4ccccc4C(=O)N3c3cccc(Cl)c3F)cc2[nH]1)OCC1CCCO1 (stereo not shown) [Entry 337, tetrahydrofuran-2-ylmethyl {6-[2-(3-chloro-2-fluorophenyl)-1-hydroxy-3-oxo-2,3-dihydro-1H-isoindol-1-yl]-1H-benzimidazol-2-yl}carbamate]",< 100,< 100,–,–
"C#Cc1cccc(N2C(=O)c3ccccc3C2(O)c2ccc3[nH]c(Nc4ncccn4)nc3c2)c1F (stereo not shown) [Entry 364, 2-(3-ethynyl-2-fluorophenyl)-3-hydroxy-3-[2-(pyrimidin-2-ylamino)-1H-benzimidazol-5-yl]-2,3-dihydro-1H-isoindol-1-one]",< 100,< 100,–,–
"Cc1ccc(Cl)cc1N1C(=O)c2ccccc2C1(O)c1ccc2c(c1)NC(=O)CO2 (stereo not shown) [Entry 74, 6-[2-(5-chloro-2-methylphenyl)-1-hydroxy-3-oxo-2,3-dihydro-1H-isoindol-1-yl]-2H-1,4-benzoxazin-3(4H)-one]",–,–,< 100,< 100
"O=C1COc2ccc(C3(O)c4ccccc4C(=O)N3c3ccc(F)c(F)c3)cc2N1 (stereo not shown) [Entry 58, 6-[2-(3,4-difluorophenyl)-1-hydroxy-3-oxo-2,3-dihydro-1H-isoindol-1-yl]-2H-1,4-benzoxazin-3(4H)-one]",–,–,1000 to 10000,1000 to 10000
"CCCC(=O)Nc1nc2ccc(C3(O)c4ccccc4C(=O)N3c3ccc(F)cc3)cc2[nH]1 (stereo not shown) [Entry 265, N-{6-[2-(4-fluorophenyl)-1-hydroxy-3-oxo-2,3-dihydro-1H-isoindol-1-yl]-1H-benzimidazol-2-yl}butanamide]",–,–,< 100,< 100
"COC(=O)Nc1nc2cc(C3(O)c4ccccc4C(=O)N3C(C)c3cccc(C(F)(F)F)c3)ccc2[nH]1 (stereo not shown) [Entry 181, methyl [5-(1-hydroxy-3-oxo-2-{1-[3-(trifluoromethyl)phenyl]ethyl}-2,3-dihydro-1H-isoindol-1-yl)-1H-benzimidazol-2-yl]carbamate]",–,–,1000 to 10000,1000 to 10000
"C#Cc1cc(C)cc(N2C(=O)c3ccccc3C2(O)c2ccc3[nH]c(NC(=O)OC)nc3c2)c1 (stereo not shown) [Entry 383, methyl {5-[2-(3-ethynyl-5-methylphenyl)-1-hydroxy-3-oxo-2,3-dihydro-1H-isoindol-1-yl]-1H-benzimidazol-2-yl}carbamate]",< 100,< 100,–,–
"CCc1cccc(N2C(=O)c3ccccc3C2(O)c2ccc3[nH]c(NC(=O)OC)nc3c2)c1 (stereo not shown) [Entry 178, methyl {5-[2-(3-ethylphenyl)-1-hydroxy-3-oxo-2,3-dihydro-1H-isoindol-1-yl]-1H-benzimidazol-2-yl}carbamate]",–,–,< 100,< 100
"COC(=O)C(=O)Nc1nc2ccc(C3(O)c4ccccc4C(=O)N3c3cccc(Cl)c3F)cc2[nH]1 (stereo not shown) [Entry 318, methyl ({6-[2-(3-chloro-2-fluorophenyl)-1-hydroxy-3-oxo-2,3-dihydro-1H-isoindol-1-yl]-1H-benzimidazol-2-yl}amino)(oxo)acetate]",1000 to 10000,1000 to 10000,–,–
"CNc1nc2cc(C3(O)c4ccccc4C(=O)N3Cc3ccccc3)ccc2[nH]1 (stereo not shown) [Entry 84, 3-hydroxy-3-[2-(methylamino)-1H-benzimidazol-5-yl]-2-(phenylmethyl)-2,3-dihydro-1H-isoindol-1-one]",–,–,1000 to 10000,1000 to 10000
"O=C(Nc1nc2cc(C3(O)c4ccccc4C(=O)N3Cc3ccccc3)ccc2[nH]1)OCC(O)CO (stereo not shown) [Entry 215, 2,3-dihydroxypropyl {5-[1-hydroxy-3-oxo-2-(phenylmethyl)-2,3-dihydro-1H-isoindol-1-yl]-1H-benzimidazol-2-yl}carbamate]",–,–,< 100,< 100
"CC[C@@H](c1ccccc1)N1C(=O)c2ccccc2C1(O)c1ccc2[nH]c(NC(=O)OC)nc2c1 (stereo partly drawn) [Entry 199, methyl (5-{1-hydroxy-3-oxo-2-[(1S)-1-phenylpropyl]-2,3-dihydro-1H-isoindol-1-yl}-1H-benzimidazol-2-yl)carbamate]",–,–,1000 to 10000,1000 to 10000
"COC(=O)Nc1nc2cc(C(=O)c3ccccc3NC(=O)Nc3ccccc3)ccc2[nH]1 [Entry 269, methyl {5-[(2-{[(phenylamino)carbonyl]amino}phenyl)carbonyl]-1H-benzimidazol-2-yl}carbamate]",100 to 1000,100 to 1000,–,–
"COC(=O)Nc1nc2cc(C3(O)c4ccccc4C(=O)N3c3cccc(C(C)C)c3)ccc2[nH]1 (stereo not shown) [Entry 204, methyl (5-{1-hydroxy-2-[3-(1-methylethyl)phenyl]-3-oxo-2,3-dihydro-1H-isoindol-1-yl}-1H-benzimidazol-2-yl)carbamate]",–,–,< 100,< 100
"COC(=O)Nc1nc2ccc(C3(O)c4ccccc4C(=O)N3Cc3ccc(F)cc3)cc2[nH]1 (stereo not shown) [Entry 119, methyl (6-{2-[(4-fluorophenyl)methyl]-1-hydroxy-3-oxo-2,3-dihydro-1H-isoindol-1-yl}-1H-benzimidazol-2-yl)carbamate]",–,–,100 to 1000,100 to 1000
"COC(=O)Nc1nc2cc(C3(O)c4ccccc4C(=O)N3c3cccc(N(C)C)c3)ccc2[nH]1 (stereo not shown) [Entry 258, methyl (5-{2-[3-(dimethylamino)phenyl]-1-hydroxy-3-oxo-2,3-dihydro-1H-isoindol-1-yl}-1H-benzimidazol-2-yl)carbamate]",–,–,< 100,< 100
"O=C(Nc1nc2cc(C3(O)c4ccccc4C(=O)N3Cc3ccccc3)ccc2[nH]1)OCc1ccccc1 (stereo not shown) [Entry 125, phenylmethyl {5-[1-hydroxy-3-oxo-2-(phenylmethyl)-2,3-dihydro-1H-isoindol-1-yl]-1H-benzimidazol-2-yl}carbamate]",–,–,< 100,< 100
"CN1CCC(COC(=O)Nc2nc3cc(C4(O)c5ccccc5C(=O)N4c4cccc(Cl)c4F)ccc3[nH]2)CC1 (stereo not shown) [Entry 316, (1-methylpiperidin-4-yl)methyl {5-[2-(3-chloro-2-fluorophenyl)-1-hydroxy-3-oxo-2,3-dihydro-1H-isoindol-1-yl]-1H-benzimidazol-2-yl}carbamate]",< 100,< 100,–,–
"COC(=O)Nc1nc2ccc(C(=O)c3ccccc3C(=O)Nc3cc(C)ccc3F)cc2[nH]1 [Entry 419, methyl {6-[(2-{[(2-fluoro-5-methylphenyl)amino]carbonyl}phenyl)carbonyl]-1H-benzimidazol-2-yl}carbamate]",< 100,< 100,–,–
"COc1cc(OC)nc(Nc2nc3cc(C4(O)c5ccccc5C(=O)N4c4cccc(Cl)c4F)ccc3[nH]2)n1 (stereo not shown) [Entry 386, 3-(2-{[4,6-bis(methyloxy)pyrimidin-2-yl]amino}-1H-benzimidazol-5-yl)-2-(3-chloro-2-fluorophenyl)-3-hydroxy-2,3-dihydro-1H-isoindol-1-one]",< 100,< 100,–,–
"COC(=O)Nc1nc2cc(C3(O)c4ccccc4C(=O)N3c3cccc(N4CCCC4)c3)ccc2[nH]1 (stereo not shown) [Entry 298, methyl {5-[1-hydroxy-3-oxo-2-(3-pyrrolidin-1-ylphenyl)-2,3-dihydro-1H-isoindol-1-yl]-1H-benzimidazol-2-yl}carbamate]",1000 to 10000,1000 to 10000,–,–
"C#Cc1cccc(N2C(=O)c3ccccc3C2c2ccc3[nH]c(NC(=O)OC)nc3c2)c1F (stereo not shown) [Entry 377, methyl {5-[2-(3-ethynyl-2-fluorophenyl)-3-oxo-2,3-dihydro-1H-isoindol-1-yl]-1H-benzimidazol-2-yl}carbamate]",< 100,< 100,–,–
"COC(=O)Nc1nc2ccc(C3(O)c4ccccc4C(=O)N3Cc3cccc(Br)c3)cc2[nH]1 (stereo not shown) [Entry 120, methyl (6-{2-[(3-bromophenyl)methyl]-1-hydroxy-3-oxo-2,3-dihydro-1H-isoindol-1-yl}-1H-benzimidazol-2-yl)carbamate]",–,–,< 100,< 100
"COC(=O)Nc1nc2cc(C3(O)c4ccccc4C(=O)N3c3ccccc3F)ccc2[nH]1 (stereo not shown) [Entry 142, methyl {5-[2-(2-fluorophenyl)-1-hydroxy-3-oxo-2,3-dihydro-1H-isoindol-1-yl]-1H-benzimidazol-2-yl}carbamate]",–,–,< 100,< 100
"CCN(CC)CCOC(=O)Nc1nc2cc(C3(O)c4ccccc4C(=O)N3c3cccc(Cl)c3F)ccc2[nH]1 (stereo not shown) [Entry 292, 2-(diethylamino)ethyl {5-[2-(3-chloro-2-fluorophenyl)-1-hydroxy-3-oxo-2,3-dihydro-1H-isoindol-1-yl]-1H-benzimidazol-2-yl}carbamate]",< 100,< 100,–,–
"COC(=O)Nc1nc2cc(C3(O)c4ccccc4C(=O)N3c3cc(Cl)c(Cl)cc3F)ccc2[nH]1 (stereo not shown) [Entry 250, methyl {5-[2-(4,5-dichloro-2-fluorophenyl)-1-hydroxy-3-oxo-2,3-dihydro-1H-isoindol-1-yl]-1H-benzimidazol-2-yl}carbamate]",–,–,< 100,< 100
"COC(=O)Nc1nc2ccc(C3(O)c4c(F)ccc(F)c4C(=O)N3c3cc(Cl)ccc3C)cc2[nH]1 (stereo not shown) [Entry 376, methyl {6-[2-(5-chloro-2-methylphenyl)-4,7-difluoro-1-hydroxy-3-oxo-2,3-dihydro-1H-isoindol-1-yl]-1H-benzimidazol-2-yl}carbamate]",< 100,< 100,–,–
"COC(=O)Nc1nc2cc(C3(O)c4ccccc4C(=O)N3c3cc(Br)ccc3C)ccc2[nH]1 (stereo not shown) [Entry 305, methyl {5-[2-(5-bromo-2-methylphenyl)-1-hydroxy-3-oxo-2,3-dihydro-1H-isoindol-1-yl]-1H-benzimidazol-2-yl}carbamate]",< 100,< 100,–,–
"COC(=O)Nc1nc2cc(C3(O)c4ccccc4C(=O)N3C(C)c3cc(F)cc(F)c3)ccc2[nH]1 (stereo not shown) [Entry 165, methyl (5-{2-[1-(3,5-difluorophenyl)ethyl]-1-hydroxy-3-oxo-2,3-dihydro-1H-isoindol-1-yl}-1H-benzimidazol-2-yl)carbamate]",–,–,100 to 1000,1000 to 10000
